pIC50: −log10 of the molar value.
Target: recombinant human SAE enzyme (Homo sapiens (Human), UniProt Q9UBT2)
Test: SAE HTRF enzyme assay
Type: biochemical
Settings: for IC50: SAE inhibition, class symbols, legend in nM; for pIC50: class symbols A/B/C; for inhibition at 0.111 µM: read-out: Percent Inhibition
Summary of the method: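 Sumoylation of Ubc9-GST by SAE was followed at low ATP (0.5 μM), pH 7.5, 24° C. for 105 min. Product was detected by HTRF with antibody pairs against Flag and GST tags.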

[1] = SAE inhibition at compound concentration 0.111 μM

Chain of recombinant human SAE enzyme (Q9UBT2 whole entry): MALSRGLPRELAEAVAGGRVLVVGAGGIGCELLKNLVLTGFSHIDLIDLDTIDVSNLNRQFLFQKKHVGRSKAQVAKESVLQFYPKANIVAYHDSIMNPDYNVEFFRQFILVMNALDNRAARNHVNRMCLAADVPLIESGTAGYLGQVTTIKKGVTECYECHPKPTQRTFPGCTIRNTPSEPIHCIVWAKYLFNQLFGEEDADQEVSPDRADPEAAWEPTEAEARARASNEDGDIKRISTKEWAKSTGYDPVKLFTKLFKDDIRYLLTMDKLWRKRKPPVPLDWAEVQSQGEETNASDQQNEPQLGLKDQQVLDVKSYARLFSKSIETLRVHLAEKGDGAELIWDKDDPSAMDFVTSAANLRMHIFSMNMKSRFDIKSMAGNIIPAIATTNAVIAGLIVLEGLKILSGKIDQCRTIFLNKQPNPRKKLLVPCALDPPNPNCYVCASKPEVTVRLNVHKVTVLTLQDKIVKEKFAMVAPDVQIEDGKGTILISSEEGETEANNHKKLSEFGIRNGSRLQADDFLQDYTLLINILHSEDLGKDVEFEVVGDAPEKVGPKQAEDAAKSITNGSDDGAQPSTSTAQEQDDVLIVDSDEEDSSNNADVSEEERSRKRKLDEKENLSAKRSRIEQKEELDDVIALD
Chain of recombinant human SAE enzyme (Q9UBE0 whole entry partner): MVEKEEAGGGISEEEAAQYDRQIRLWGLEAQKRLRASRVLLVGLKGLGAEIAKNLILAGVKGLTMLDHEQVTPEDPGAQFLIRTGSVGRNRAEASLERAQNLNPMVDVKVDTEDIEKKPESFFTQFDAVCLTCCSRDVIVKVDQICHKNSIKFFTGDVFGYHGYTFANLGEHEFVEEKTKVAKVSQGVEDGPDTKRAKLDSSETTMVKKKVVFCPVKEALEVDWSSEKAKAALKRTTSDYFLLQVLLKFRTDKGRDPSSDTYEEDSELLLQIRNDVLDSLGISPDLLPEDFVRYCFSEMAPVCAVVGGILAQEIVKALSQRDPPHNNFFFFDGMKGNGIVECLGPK

Compound	Percent Inhibition [1]	IC50	Percent Inhibition (Concentration 0.111 μM)	pIC50	inhibition at 0.111 µM (Concentration 0.111 μM)
Cc1sc(C(=O)c2cncnc2N[C@@H]2C[C@H](COS(N)(=O)=O)[C@@H](O)C2)cc1[C@@H]1OCCn2c1nc1ccccc12 (mixture of isomers) [I-344, [(1R,2S,4R)-4-{[5-({4-[(1S)-3,4-dihydro-1H-[1,4]oxazino[4,3-a]benzimidazol-1-yl]-5-methyl-2-thienyl}carbonyl)pyrimidin-4-yl]amino}-2-hydroxycyclopentyl]methyl sulfamate and [(1R,2S,4R)-4-{[5-({4-[(1R)-3,4-dihydro-1H-[1,4]oxazino[4,3-a]benzimidazol-1-yl]-5-methyl-2-thienyl}carbonyl)pyrimidin-4-yl]amino}-2-hydroxycyclopentyl]methyl sulfamate]	99%	< 10 nM	–	–	–
C#Cc1ccc2c(c1)[C@H](c1cc(C(=O)c3cncnc3N[C@@H]3C[C@H](COS(N)(=O)=O)[C@@H](O)C3)sc1C)OCC2 (single isomer, unassigned) [I-252b, [(1R,2S,4R)-4-{[5-({4-[(1R)-7-ethynyl-3,4-dihydro-1H-isochromen-1-yl]-5-methyl-2-thienyl}carbonyl)pyrimidin-4-yl]amino}-2-hydroxycyclopentyl]methyl sulfamate or [(1R,2S,4R)-4-{([5-({4-[(1S)-7-ethynyl-3,4-dihydro-1H-isochromen-1-yl]-5-methyl-2-thienyl}carbonyl)pyrimidin-4-yl]amino}-2-hydroxycyclopentyl]methyl sulfamate]	–	–	98	> 8.00	–
NS(=O)(=O)OC[C@H]1C[C@@H](Nc2ncncc2C(=O)c2cc([C@@H]3OCCCc4ccc(Cl)cc43)cs2)C[C@@H]1O (single isomer, unassigned) [I-314a, [(1R,2S,4R)-4-{[5-({4-[(1R)-8-chloro-1,3,4,5-tetrahydro-2-benzoxepin-1-yl]-2-thienyl}carbonyl)pyrimidin-4-yl]amino}-2-hydroxycyclopentyl]methyl sulfamate or [(1R,2S,4R)-4-{[5-({4-[(1S)-8-chloro-1,3,4,5-tetrahydro-2-benzoxepin-1-yl]-2-thienyl}carbonyl)pyrimidin-4-yl]amino}-2-hydroxycyclopentyl]methyl sulfamate]	49%	100 to 1000 nM	–	–	–
{(1R,2S,4R)-4-[(5-{5-chloro-4-[(1R)-7-chloro-1,2,3,4-tetrahydroisoquinolin-1-yl]-2- [I-299]	98%	< 10 nM	–	–	–
N[C@H](c1cccc(Cl)c1)c1cc(C(=O)c2cncnc2N[C@@H]2C[C@H](COS(N)(=O)=O)[C@@H](O)C2)sc1Cl (single isomer, unassigned) [I-15a, [(1R,2S,4R)-4-{[5-({4-[(R)-amino(3-chlorophenyl)methyl]-5-chloro-2-thienyl}carbonyl)pyrimidin-4-yl]amino}-2-hydroxycyclopentyl]methyl sulfamate or [(1R,2S,4R)-4-{[5-({4-[(S)-amino(3-chlorophenyl)methyl]-5-chloro-2-thienyl}carbonyl)pyrimidin-4-yl]amino}-2-hydroxycyclopentyl]methyl sulfamate]	–	–	66	7.00 to 8.00	–
NS(=O)(=O)OC[C@H]1C[C@@H](Nc2ncncc2C(=O)c2cc([C@H](O)C3CCCCC3)c(Cl)s2)C[C@@H]1O (mixture of isomers) [I-172, [(1R,2S,4R)-4-{[5-({5-chloro-4-[(R)-cyclohexyl(hydroxy)methyl]-2-thienyl}carbonyl)pyrimidin-4-yl]amino}-2-hydroxycyclopentyl]methyl sulfamate and [(1R,2S,4R)-4-{[5-({5-chloro-4-[(S)-cyclohexyl(hydroxy)methyl]-2-thienyl}carbonyl)pyrimidin-4-yl]amino}-2-hydroxycyclopentyl]methyl sulfamate]	–	–	88	7.00 to 8.00	–
NS(=O)(=O)OCC1CC(Nc2ncncc2C(=O)c2cc(C(O)c3cccc(Br)c3)cs2)CC1O (mixture of isomers) [I-17, [(1R,2S,4R)-4-{[5-({4-[(R)-(3-bromophenyl)(hydroxy)methyl]-2-thienyl}carbonyl)pyrimidin-4-yl]amino}-2-hydroxycyclopentyl]methyl sulfamate and [(1R,2S,4R)-4-{[5-({4-[(S)-(3-bromophenyl)(hydroxy)methyl]-2-thienyl}carbonyl)pyrimidin-4-yl]amino}-2-hydroxycyclopentyl]methyl sulfamate]	–	–	99	> 8.00	–
NS(=O)(=O)OC[C@H]1C[C@@H](Nc2ncncc2C(=O)c2cc(Cc3cccc(Br)n3)cs2)C[C@@H]1O [I-53, [(1R,2S,4R)-4-{[5-({4-[(6-bromopyridin-2-yl)methyl]-2-thienyl}carbonyl)pyrimidin-4-yl]amino}-2-hydroxycyclopentyl]methyl sulfamate]	–	–	–	–	99%
NS(=O)(=O)OC[C@H]1C[C@@H](Nc2ncncc2C(=O)c2cc([C@@H]3OCCc4cc(F)c(F)cc43)c(Cl)s2)C[C@@H]1O (single isomer, unassigned) [I-290a, [(1R,2S,4R)-4-{[5-({5-chloro-4-[(1R)-6,7-difluoro-3,4-dihydro-1H-isochromen-1-yl]-2-thienyl}carbonyl)pyrimidin-4-yl]amino}-2-hydroxycyclopentyl]methyl sulfamate or [(1R,2S,4R)-4-{[5-({5-chloro-4-[(1S)-6,7-difluoro-3,4-dihydro-1H-isochromen-1-yl]-2-thienyl}carbonyl)pyrimidin-4-yl]amino}-2-hydroxycyclopentyl]methyl sulfamate]	62%	10 to 100 nM	–	–	–
NS(=O)(=O)OC[C@H]1C[C@@H](Nc2ncncc2C(=O)c2cc([C@@H]3CCCc4ccc(Cl)cc43)cs2)C[C@@H]1O (single isomer, unassigned) [I-335b, [(1R,2S,4R)-4-{[5-({4-[(1R)-7-chloro-1,2,3,4-tetrahydronaphthalen-1-yl]-2-thienyl}carbonyl)pyrimidin-4-yl]amino}-2-hydroxycyclopentyl]methyl sulfamate or [(1R,2S,4R)-4-{[5-({4-[(1S)-7-chloro-1,2,3,4-tetrahydronaphthalen-1-yl]-2-thienyl}carbonyl)pyrimidin-4-yl]amino}-2-hydroxycyclopentyl]methyl sulfamate]	41%	100 to 1000 nM	–	–	–
N[C@H](c1cccc(Br)c1)c1cc(C(=O)c2cncnc2N[C@@H]2C[C@H](COS(N)(=O)=O)[C@@H](O)C2)sc1Cl (single isomer, unassigned) [I-22a, [(1R,2S,4R)-4-{[5-({4-[(R)-amino(3-bromophenyl)methyl]-5-chloro-2-thienyl}carbonyl)pyrimidin-4-yl]amino}-2-hydroxycyclopentyl]methyl sulfamate or [(1R,2S,4R)-4-{[5-({4-[(S)-amino(3-bromophenyl)methyl]-5-chloro-2-thienyl}carbonyl)pyrimidin-4-yl]amino}-2-hydroxycyclopentyl]methyl sulfamate]	–	–	83	7.00 to 8.00	–
Cc1cnn(Cc2csc(C(=O)c3cncnc3N[C@@H]3C[C@H](COS(N)(=O)=O)[C@@H](O)C3)c2)c1 [I-74, [(1R,2S,4R)-2-hydroxy-4-{[5-({4-[(4-methyl-1H-pyrazol-1-yl)methyl]-2-thienyl}carbonyl)pyrimidin-4-yl]amino}cyclopentyl]methyl sulfamate]	–	–	–	> 8.00	98%
